Data on two compounds can be found in ChEMBL document CHEMBL3526017, “Predicting the drug interaction potential of AMG 853, a dual antagonist of the D-prostanoid and chemoattractant receptor-homologous molecule expressed on T helper 2 cells receptors” (Drug Metab Dispos, 2012).

Data set [1] relates to Liver microsome. The experiment in a line: Drug metabolism in human liver microsomes treated with AMG 853 after 45 mins by LC-MS/MS analysis in presence of UDPGA. The settings on record: 0.75 h. The data set is classed as ADME. On the technique in general: Microsomes from liver hold many membrane-bound enzymes, among them those of drug oxidation.
For the next data set, the target named is T1, Cytochrome P450 2C8 (Homo sapiens, UniProt P10632).
T1 sequence (P10632 whole entry): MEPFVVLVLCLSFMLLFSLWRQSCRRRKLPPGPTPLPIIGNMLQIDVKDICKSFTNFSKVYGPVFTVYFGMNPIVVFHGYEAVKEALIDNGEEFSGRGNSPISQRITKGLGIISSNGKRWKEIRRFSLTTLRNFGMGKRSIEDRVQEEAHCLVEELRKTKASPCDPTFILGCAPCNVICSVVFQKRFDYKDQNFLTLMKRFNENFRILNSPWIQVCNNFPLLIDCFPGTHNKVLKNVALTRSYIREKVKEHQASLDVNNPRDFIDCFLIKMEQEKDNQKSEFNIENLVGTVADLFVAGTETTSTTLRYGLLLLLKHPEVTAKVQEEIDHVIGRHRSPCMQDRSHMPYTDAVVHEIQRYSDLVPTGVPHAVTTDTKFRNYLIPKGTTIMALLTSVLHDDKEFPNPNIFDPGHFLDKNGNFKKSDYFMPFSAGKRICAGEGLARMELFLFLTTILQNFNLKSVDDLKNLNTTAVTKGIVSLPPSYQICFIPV
Kind of data set: Drug metabolism assessed as recombinant CYP2C8 (unknown origin)-mediated 2-(5-chloro-4-(2-(2-chloro-4-cyclopropylphenylsulfonamido)-4-(1-hydroxy-2-methylpropan-2-ylcarbamoyl)phenoxy)-2-fluorophenyl)acetic acid formation at 10 uM after 30 mins by LC-MS/MS analysis. It counts as ADME. The following applies: recombinant enzyme, 0.5 h.

The subject of another data set is CYP3A4. Kind of data set: Upregulation of CYP3A4 mRNA expression in human hepatocytes at 0.3 to 30 uM treated every 24 hrs for 2 days measured on day 5 relative to control. It counts as ADME, cell-based, Hepatocyte. The following applies: read-out: FC.
The nature of data set [2]: Fraction unbound in plasma (unknown origin). It counts as ADME, cell-free.
The test system of data set [3] is Liver microsome. The experiment in a line: Drug metabolism in human liver microsomes assessed as 2-(5-chloro-4-(2-(2-chloro-4-cyclopropylphenylsulfonamido)-4-(1-hydroxy-2-methylpropan-2-ylcarbamoyl)phenoxy)-2-fluorophenyl)acetic acid formation at 2 uM after 60 mins by LC-MS/MS analysis in presence of montelukast. The data set is classed as ADME. The settings on record: 1 h.

In data set [4] the target is T2, UDP-glucuronosyltransferase 1A3 (Homo sapiens, UniProt P35503).
T2 sequence (P35503 whole entry): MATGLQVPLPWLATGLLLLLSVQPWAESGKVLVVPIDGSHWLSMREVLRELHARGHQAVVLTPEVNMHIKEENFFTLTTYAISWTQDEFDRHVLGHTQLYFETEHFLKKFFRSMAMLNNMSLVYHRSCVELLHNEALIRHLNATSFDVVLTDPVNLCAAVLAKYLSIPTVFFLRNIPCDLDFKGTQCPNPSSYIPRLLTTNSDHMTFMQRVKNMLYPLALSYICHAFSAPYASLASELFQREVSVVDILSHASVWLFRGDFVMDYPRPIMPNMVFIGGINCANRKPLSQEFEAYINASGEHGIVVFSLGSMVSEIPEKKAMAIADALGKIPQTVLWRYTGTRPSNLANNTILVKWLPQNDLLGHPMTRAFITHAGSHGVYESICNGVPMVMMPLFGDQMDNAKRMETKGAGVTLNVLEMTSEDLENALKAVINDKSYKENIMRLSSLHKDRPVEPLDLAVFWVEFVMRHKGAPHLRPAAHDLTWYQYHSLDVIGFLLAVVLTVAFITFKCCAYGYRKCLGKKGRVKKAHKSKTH
Kind of data set: Drug metabolism assessed as human recombinant UGT1A3-mediated (2S,3S,4S,5R,6S)-6-(2-(4-(4-(tert-butylcarbamoyl)-2-(2-chloro-4-cyclopropylphenylsulfonamido)phenoxy)-5-chloro-2-fluorophenyl)acetoxy)-3,4,5-trihydroxytetrahydro-2H-pyran-2-carboxylic acid formation at 10 uM after 30 mins by LC-MS/MS analysis. The data set is classed as ADME. The settings on record: recombinant enzyme, 0.5 h.

The next data set addresses T3, Cytochrome P450 2J2 (Homo sapiens, UniProt P51589).
T3 sequence (P51589 whole entry): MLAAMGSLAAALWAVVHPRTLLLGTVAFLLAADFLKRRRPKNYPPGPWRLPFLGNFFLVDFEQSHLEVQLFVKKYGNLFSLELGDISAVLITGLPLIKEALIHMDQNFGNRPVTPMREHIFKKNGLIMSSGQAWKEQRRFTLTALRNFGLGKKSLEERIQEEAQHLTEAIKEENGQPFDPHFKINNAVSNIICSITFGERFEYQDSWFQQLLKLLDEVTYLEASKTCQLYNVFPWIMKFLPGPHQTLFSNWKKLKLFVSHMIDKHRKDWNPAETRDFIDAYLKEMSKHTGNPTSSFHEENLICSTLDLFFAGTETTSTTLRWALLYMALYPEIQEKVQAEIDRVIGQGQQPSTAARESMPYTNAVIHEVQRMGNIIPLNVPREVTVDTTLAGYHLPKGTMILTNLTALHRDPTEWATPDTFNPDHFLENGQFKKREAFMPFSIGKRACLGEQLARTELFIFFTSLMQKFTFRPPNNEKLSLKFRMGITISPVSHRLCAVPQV
The experiment in a line: Drug metabolism assessed as recombinant CYP2J2 (unknown origin)-mediated 2-(5-chloro-4-(2-(2-chloro-4-cyclopropylphenylsulfonamido)-4-(1-hydroxy-2-methylpropan-2-ylcarbamoyl)phenoxy)-2-fluorophenyl)acetic acid formation at 10 uM after 30 mins by LC-MS/MS analysis. The data set is classed as ADME. The settings on record: recombinant enzyme, 0.5 h.

Data set [5] deals with T4, UDP-glucuronosyltransferase 2B7 (Homo sapiens, UniProt P16662).
T4 sequence (P16662 whole entry): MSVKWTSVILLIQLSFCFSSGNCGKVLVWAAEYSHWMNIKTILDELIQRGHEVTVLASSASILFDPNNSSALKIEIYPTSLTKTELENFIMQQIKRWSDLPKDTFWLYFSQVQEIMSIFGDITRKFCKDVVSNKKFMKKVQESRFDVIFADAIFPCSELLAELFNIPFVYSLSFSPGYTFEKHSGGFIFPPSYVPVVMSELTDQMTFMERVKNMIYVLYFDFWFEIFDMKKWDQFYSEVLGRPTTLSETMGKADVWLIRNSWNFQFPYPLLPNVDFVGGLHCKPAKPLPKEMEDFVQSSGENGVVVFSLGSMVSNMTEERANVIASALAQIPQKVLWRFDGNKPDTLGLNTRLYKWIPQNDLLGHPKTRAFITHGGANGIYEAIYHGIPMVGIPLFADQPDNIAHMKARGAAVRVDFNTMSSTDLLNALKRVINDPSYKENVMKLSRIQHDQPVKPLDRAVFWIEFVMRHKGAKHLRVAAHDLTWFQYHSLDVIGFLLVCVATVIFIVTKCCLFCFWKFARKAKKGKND
The experiment in a line: Drug metabolism assessed as human recombinant UGT2B7-mediated (2S,3S,4S,5R,6S)-6-(2-(4-(4-(tert-butylcarbamoyl)-2-(2-chloro-4-cyclopropylphenylsulfonamido)phenoxy)-5-chloro-2-fluorophenyl)acetoxy)-3,4,5-trihydroxytetrahydro-2H-pyran-2-carboxylic acid formation at 10 uM after 30 mins by LC-MS/MS analysis. The data set is classed as ADME. The settings on record: recombinant enzyme, 0.5 h.

Data set [6] is described as follows: AUC (0 to infinity) in healthy human at 50 mg, po. Further details: dose 50 mg, route oral, time infinity. The following applies: plasma. It counts as ADME, organism-based.

In general, Vmax refers to the top rate of the reaction or transport when substrate is in excess. One may read the fraction unbound as the share of the substance not bound to proteins or other matrix. A low value points to little free substance. As a reminder, the AUC(0-inf) is total exposure, with the tail of the curve extrapolated. Lower therefore signals low exposure.

As to `CC(C)(C)NC(=O)c1ccc(Oc2cc(F)c(CC(=O)O[C@@H]3O[C@H](C(=O)O)[C@@H](O)[C@H](O)[C@H]3O)cc2Cl)c(NS(=O)(=O)c2ccc(C3CC3)cc2Cl)c1`, in the data set on Liver microsome [1], the S50 came to 205.4 µM and the Vmax came to 43 pmol/min/mg.
With `CC(C)(C)NC(=O)c1ccc(Oc2cc(F)c(CC(=O)O)cc2Cl)c(NS(=O)(=O)c2ccc(C3CC3)cc2Cl)c1` [VIDUPIPRANT], the Drug metabolism result on Cytochrome P450 2C8 is on record as “metabolite_detected”; in the data set on Liver microsome [3], “metabolite_not_detected”; in data set [4], “metabolite_detected”; on Cytochrome P450 2J2, “metabolite_detected”; in data set [5], “metabolite_detected”. The fold induction at 48 h, up to 30 µM in the data set on CYP3A4 was 1.7. In data set [2], this compound gave a fraction unbound of 0.003. This compound also came in with an AUC(0-inf) in data set [6] of 671 ng·h/mL.
